Where “and” joins values, the source holds several entries; their conditions need not be identical. Equal entries are not always repeated. Where two headings read alike, the source gives them in different places.
What was measured:
human PTHR1 = biological target: T1, human PTHR1 (Homo sapiens, UniProt Q03431); experiment: HitHunter cAMP XS+ assay, cAMP Hunter cell line PTHR1; type: cell-based; settings: for RLU: replicates (1),(2)
T1 sequence (Q03431 27-593): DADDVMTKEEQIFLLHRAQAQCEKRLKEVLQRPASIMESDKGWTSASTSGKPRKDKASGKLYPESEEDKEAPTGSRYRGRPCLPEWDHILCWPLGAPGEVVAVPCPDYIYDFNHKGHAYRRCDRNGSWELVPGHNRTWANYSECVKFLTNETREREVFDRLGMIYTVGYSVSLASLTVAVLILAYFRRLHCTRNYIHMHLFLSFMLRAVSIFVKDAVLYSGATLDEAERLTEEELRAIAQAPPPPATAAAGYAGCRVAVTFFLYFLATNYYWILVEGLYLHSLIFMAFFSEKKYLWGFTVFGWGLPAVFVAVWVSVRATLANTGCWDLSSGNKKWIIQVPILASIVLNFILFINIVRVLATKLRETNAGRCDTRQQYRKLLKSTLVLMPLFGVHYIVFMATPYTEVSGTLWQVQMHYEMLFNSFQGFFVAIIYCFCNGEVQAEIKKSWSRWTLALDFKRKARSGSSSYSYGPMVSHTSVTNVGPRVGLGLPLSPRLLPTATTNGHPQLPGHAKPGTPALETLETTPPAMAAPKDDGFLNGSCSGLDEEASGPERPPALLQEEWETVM
Excerpt: Results are reported as raw RLU values and represent the
mean ± SEM of 2 technical replicates.

[1] = test system: trabecular bone of lumbar vertebrae; experiment: Micro-CT of trabecular bone in L3 vertebral body after 8-week oral treatment; type: in vivo, mouse; settings: 10 mg/kg PO 3 times per week, 8 weeks, individual mice
RXFP2 = RXFP2 (Homo sapiens, UniProt Q8WXD0); experiment: HTRF cAMP assay in HEK-RXFP2 cells (stably transfected; also primary HTS); type: cell-based; set-up: FLAG (N); expressed in transfected cells; settings: for % Eff (cAMP response): experiments (1)-(3), 100 nM INSL3 = 100%, DMSO = 0%; for EC50: HEK-RXFP2
Chain of RXFP2 (Q8WXD0 whole entry): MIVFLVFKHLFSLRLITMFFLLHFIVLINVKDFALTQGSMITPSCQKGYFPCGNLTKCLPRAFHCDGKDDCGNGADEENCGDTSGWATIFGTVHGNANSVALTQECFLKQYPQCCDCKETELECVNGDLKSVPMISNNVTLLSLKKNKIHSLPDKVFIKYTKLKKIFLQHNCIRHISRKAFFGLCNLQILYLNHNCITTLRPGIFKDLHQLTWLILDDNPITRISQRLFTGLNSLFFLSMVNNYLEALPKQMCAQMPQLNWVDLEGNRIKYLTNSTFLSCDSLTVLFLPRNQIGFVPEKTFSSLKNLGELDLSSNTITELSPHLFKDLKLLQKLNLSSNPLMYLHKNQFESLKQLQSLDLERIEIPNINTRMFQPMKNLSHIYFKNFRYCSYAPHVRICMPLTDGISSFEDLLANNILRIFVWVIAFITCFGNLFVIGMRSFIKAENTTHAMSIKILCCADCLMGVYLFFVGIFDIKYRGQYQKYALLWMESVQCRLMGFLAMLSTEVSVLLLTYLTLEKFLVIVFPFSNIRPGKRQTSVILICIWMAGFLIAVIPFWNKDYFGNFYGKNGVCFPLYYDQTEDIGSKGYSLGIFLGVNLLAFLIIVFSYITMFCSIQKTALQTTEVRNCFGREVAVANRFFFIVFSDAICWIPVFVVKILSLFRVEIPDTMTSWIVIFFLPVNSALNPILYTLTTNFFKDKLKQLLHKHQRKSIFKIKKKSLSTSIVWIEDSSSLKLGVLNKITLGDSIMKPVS
Method: A quantitative high-throughput screening (HTS) of more than 80 K compounds of the NCATS/NIH diversity collection was performed at four concentrations in HEK293T cells stably expressing human RXFP2 to identify candidate agonists. A homogenous time resolved fluorescence (HTRF) assay was used to directly detect compound-induced cAMP accumulation, with forskolin or human recombinant INSL3 serving as positive controls. […] A confirmatory CRE-luciferase cAMP screen was used to eliminate any potential false positives due to assay detection artifacts (Supplementary Fig. 1a).
The cAMP response induced by the compounds was normalized to the cAMP response induced by 100 nM INSL3 as 100% efficacy and the cAMP response induced by DMSO vehicle as 0% efficacy. Emax and EC50 were calculated using four parameter nonlinear fit dose-response stimulation curves. […] Molecular weight (MW).
The HTRF Gs dynamic cAMP assay kit (CisBio, Bedford, MA) was used to measure intracellular cAMP accumulation in HEK293T cells (ATCC, Manassas, VA)[56]. […] The cell stock was verified mycoplasma free and authenticated by ATCC. Transient transfection was accomplished by treating cells in a 6-well plate with a mixture of 2 μg plasmid and 6 μL Lipofectamine 2000 (Invitrogen, Waltham, MA) per manufacturer’s protocol and incubating overnight. For cAMP measurement in 96-well format, HEK293T cells stably transfected with human RXFP2 (HEK-RXFP2), human RXFP1 (HEK-RXFP1), mouse Rxfp1 (HEK-Rxfp1) or transiently transfected with human RXFP1-RXFP2 chimeric receptors were seeded between 7500 and 30,000 cells per well, depending on cell line responsiveness, in serum-free DMEM medium and incubated overnight at 37 °C, 5% CO2. After 18 h, cells were treated with a titration of compound, 2 μM forskolin, or DMSO vehicle. Control wells were also treated with a titration of INSL3 (Phoenix Pharmaceuticals, Burlingame, CA) or human recombinant relaxin 2 (Peprotech, Cranbury, NJ). For the RXFP2 antagonist experiment, cells were co-treated with 0.28 μM compound or 30 nM INSL3 and a titration of the INSL3 B dimer antagonist[38],[39]. For the INSL3 allosteric modulation experiment, cells were co-treated with 0.025, 0.0025, or 0.00025 μM of compound and a titration of INSL3. Cells were incubated for 1 h at 37 °C, 5% CO2, and then kit cAMP-d2 and anti-cAMP antibody were added per manufacturer protocol. Plates were incubated for 1 h at room temperature and the signal was read on a CLARIOstar plate reader (BMG Labtech, Ortenberg, Germany) at 665 and 620 nm emission wavelengths.

[2] = test system: human aortic vascular smooth muscle cells (HAVSMC); experiment: CellTiter-Glo cytotoxicity assay in HAVSMC cells; type: cell-based; settings: experiments (1)-(3)
Excerpt: Fig. 4 RXFP2 agonists induce mineralization of primary human osteoblasts and are non-cytotoxic. a Mineral hydroxyapatite fluorescent quantification after 14-day treatment in HCO cells. Results were normalized to control DMSO as 100% mineralization. b HCO and c HAVSMC toxicity after 24-h treatment with RXFP2 agonists, normalized to DMSO treatment as 0% toxicity. Results are expressed as mean ± SEM of 3 independent experiments. *p < 0.05, *** p < 0.001 vs. DMSO using One-way ANOVA.
Cell viability studies were undertaken to identify potential cytotoxic effects of the RXFP2 agonists. HCO cells and human aortic vascular smooth muscle cells (HAVSMC) were treated for 24 h. […] At 8.3 µM and below, no toxicity was found in HCO cells and toxicity was below 20% in HAVSMC cells for all three compounds (Fig. 4b, c).
The ATP CellTiter-Glo Luminescent Cell Viability Assay (Promega, Madison, WI) was used to measure cytotoxicity induced by the compounds in HCO cells and human aortic vascular smooth muscle cells (HAVSMC) (ATCC, Manassas, VA). HCO and HAVSMC cells were seeded in 96-well plates at 3000 and 7000 cells per well respectively. Cells were incubated overnight, treated with compound or DMSO vehicle and incubated for 24 h at 37 °C, 5% CO2. […] Plates were shaken for 2 min, incubated at room temperature for 10 min and the luminescent signal was read on a CLARIOstar plate reader.

O=C1Nc2ccc(-c3cc(C(F)(F)F)cc(C(F)(F)F)c3)cc2C(=O)N2CCN(C(=O)COc3ccc(OC(F)(F)F)cc3I)C[C@@H]12 [compound 6641]
cAMP response through PTHR1 (human PTHR1; Hit Hunter cAMP assay): does not activate | RLU (human PTHR1; Log [M] -4.70): 1080 RLU | RLU (human PTHR1; Log [M] -5.18): 1000 RLU | RLU (human PTHR1; Log [M] -5.65): 960 RLU | RLU (human PTHR1; Log [M] -6.13): 1040 RLU | RLU (human PTHR1; Log [M] -6.61): 920 RLU and 960 RLU | RLU (human PTHR1; Log [M] -7.08): 1200 RLU and 1040 RLU | RLU (human PTHR1; Log [M] -7.56): 1000 RLU and 880 RLU | RLU (human PTHR1; Log [M] -8.04): 1000 RLU and 920 RLU | RLU (human PTHR1; Log [M] -8.52): 920 RLU and 1000 RLU | RLU (human PTHR1; Log [M] -8.99): 800 RLU | BV/TV (%) [1]: trend toward increased and 21.83% and 22.07% and 25.65% and 21.31% and 23.44% and 26.86% and 22.32% and 23.17% and 21.16% and 25.39% and 23.83% and 22.19% and 23.69% and 23.39% and 21.11% | Conn.D [1]: No changes and 105.367 1/mm^3 and 104.207 1/mm^3 and 139.801 1/mm^3 and 114.117 1/mm^3 and 100.266 1/mm^3 and 110.113 1/mm^3 and 116.566 1/mm^3 and 102.739 1/mm^3 and 105.531 1/mm^3 and 114.364 1/mm^3 and 111.763 1/mm^3 and 100.184 1/mm^3 and 109.218 1/mm^3 and 125.466 1/mm^3 and 120.228 1/mm^3 | Mat.D [1]: No changes and 789.633 VOI-mg HA/ccm and 806.041 VOI-mg HA/ccm and 814.578 VOI-mg HA/ccm and 814.711 VOI-mg HA/ccm and 826.05 VOI-mg HA/ccm and 764.488 VOI-mg HA/ccm and 771.958 VOI-mg HA/ccm and 779.095 VOI-mg HA/ccm and 769.29 VOI-mg HA/ccm and 795.903 VOI-mg HA/ccm and 795.302 VOI-mg HA/ccm and 809.309 VOI-mg HA/ccm and 793.168 VOI-mg HA/ccm and 804.707 VOI-mg HA/ccm and 800.171 VOI-mg HA/ccm | Tb.N [1]: significant increase and 4.0038 mm-1 and 4.0307 mm-1 and 4.3607 mm-1 and 4.399 mm-1 and 4.0225 mm-1 and 4.1566 mm-1 and 4.1337 mm-1 and 4.2031 mm-1 and 4.3359 mm-1 and 3.9986 mm-1 and 4.1625 mm-1 and 3.9653 mm-1 and 4.2022 mm-1 and 4.1463 mm-1 and 4.168 mm-1 | Tb.Sp [1]: decreased and 0.2416 mm and 0.2439 mm and 0.2173 mm and 0.2168 mm and 0.234 mm and 0.2335 mm and 0.2409 mm and 0.2383 mm and 0.2244 mm and 0.2446 mm and 0.2447 mm and 0.2276 mm and 0.235 mm and 0.2349 mm | Tb.Th [1]: significant increase and 0.0544 mm and 0.0558 mm and 0.0561 mm and 0.0524 mm and 0.0567 mm and 0.0611 mm and 0.0571 mm and 0.0582 mm and 0.0525 mm and 0.0589 mm and 0.057 mm and 0.056 mm and 0.0578 mm and 0.0547 mm and 0.0543 mm | % Eff (cAMP response) (RXFP2; Log [M] -4.60): 104.78% and 100.31% and 87.28% | % Eff (cAMP response) (RXFP2; Log [M] -5.60): 76.57% and 72.45% and 73.51% | % Eff (cAMP response) (RXFP2; Log [M] -6.60): 55.58% and 48.02% and 47.8% | % Eff (cAMP response) (RXFP2; Log [M] -7.60): 15.09% and 15.05% and 13.98% | % Eff (cAMP response) (RXFP2; Log [M] -8.60): 1.51% and 0.43% and 1.99% | % Eff (cAMP response) (RXFP2; Log [M] -9.60): -0.34% and 0.01% and 0.17% | Emax (1)-(3) (RXFP2; individual experiments, % vs. 100 nM INSL3): 115% and 116.5% and 89.48% | EC50 (RXFP2; individual experiments, read-out: EC50 (1)-(3)): 358 nM and 568 nM and 217 nM | Emax (% vs. 100 nM INSL3) (AVERAGE) (RXFP2; mean (± SEM) of 3 independent experiments): 107% and 106.99 ± 8.77% and 106.99% | EC50 (RXFP2; mean (± SEM) of 3 independent experiments, read-out: EC50 (AVERAGE)): 380 nM and < 1000 nM | % Tox ([2]; Log [M] -5.08, 24 h): 15.51% and 24.11% and 15.33% | % Tox ([2]; Log [M] -5.56, 24 h): 15.84% and 5.85%
